Measured values taken from patent KR20080020768A, “항균 효과를 갖는 목단피의 추출물로부터 분리된 신규구조의 6‘-오-바닐릴옥시파에오니플로린 화합물을유효성분으로 함유하는 조성물” (priority 2006, dated 2008).
Converted amounts (≈) assume the structure as drawn.

Legend:
[1] = system: E. coli O157 ATCC 35150; experiment: Minimum inhibitory concentration (MIC) measurement; assay type: cell-based; settings: Escherichia coli, ATCC35150, 24 h, read-out: minimum inhibitory concentration (MIC)
[2] = system: Vibrio cholerae O139 JOL376; experiment: Minimum inhibitory concentration (MIC) measurement; assay type: cell-based; settings: O139JOL376, 24 h, read-out: minimum inhibitory concentration (MIC)
[3] = system: MRSA 6 animal (chicken) isolate [동물(닭) 분리주]; experiment: Minimum inhibitory concentration (MIC) measurement; assay type: cell-based, methicillin-resistant S. aureus; settings: Staphylococcus aureus, 24 h, read-out: minimum inhibitory concentration (MIC)
[4] = system: E. coli K88 standard strain (E-126) [수과연표준균주 (E-126)]; experiment: Minimum inhibitory concentration (MIC) measurement; assay type: cell-based; settings: Escherichia coli, 24 h, read-out: minimum inhibitory concentration (MIC)
[5] = system: E. coli O157 animal isolate [동물 분리주]; experiment: Minimum inhibitory concentration (MIC) measurement; assay type: cell-based; settings: Escherichia coli, 24 h, read-out: minimum inhibitory concentration (MIC)
[6] = system: MRSA 104 human isolate [사람 분리주]; experiment: Minimum inhibitory concentration (MIC) measurement; assay type: cell-based, methicillin-resistant S. aureus; settings: Staphylococcus aureus, 24 h, read-out: minimum inhibitory concentration (MIC)
[7] = system: Shigella flexeneri JOL378; experiment: Minimum inhibitory concentration (MIC) measurement; assay type: cell-based; settings: JOL378, 24 h, read-out: minimum inhibitory concentration (MIC)
[8] = system: E. coli O157 ATCC 43890; experiment: Minimum inhibitory concentration (MIC) measurement; assay type: cell-based; settings: Escherichia coli, ATCC43890, 24 h, read-out: minimum inhibitory concentration (MIC)
[9] = system: all 18 causative bacteria of zoonotic infectious diseases [인수 공통 감염병을 유발하는 원인균 18종 모두]; experiment: Minimum inhibitory concentration (MIC) measurement, all 18 strains; assay type: cell-based; settings: 24 h; range over all 18 strains
[10] = system: Salmonella enteritidis standard strain (Sal-36) [수과연표준균주 (Sal-36)]; experiment: Minimum inhibitory concentration (MIC) measurement; assay type: cell-based; settings: Salmonella enterica, 24 h, read-out: minimum inhibitory concentration (MIC)
[11] = system: MRSA ATCC 700698; experiment: Minimum inhibitory concentration (MIC) measurement; assay type: cell-based, methicillin-resistant S. aureus; settings: Staphylococcus aureus, 24 h, read-out: minimum inhibitory concentration (MIC)
[12] = system: Shigrlla dysenteriae JOL377; experiment: Minimum inhibitory concentration (MIC) measurement; assay type: cell-based; settings: 24 h, read-out: minimum inhibitory concentration (MIC)
[13] = system: Shigella dysenteriae ATCC 49557; experiment: Minimum inhibitory concentration (MIC) measurement; assay type: cell-based; settings: ATCC49557, 24 h, read-out: minimum inhibitory concentration (MIC)
[14] = system: Salmonella typhimurium standard strain (Sal-13) [수과연표준균주 (Sal-13)]; experiment: Minimum inhibitory concentration (MIC) measurement; assay type: cell-based; settings: Salmonella enterica, 24 h, read-out: minimum inhibitory concentration (MIC)
[15] = system: Salmonella gallinarium standard strain [수과연표준균주]; experiment: Minimum inhibitory concentration (MIC) measurement; assay type: cell-based; settings: 24 h, read-out: minimum inhibitory concentration (MIC)
[16] = system: Vibrio cholerae O1 JOL375; experiment: Minimum inhibitory concentration (MIC) measurement; assay type: cell-based; settings: O1JOL375, 24 h, read-out: minimum inhibitory concentration (MIC)
[17] = system: Salmonella typhi JOL380; experiment: Minimum inhibitory concentration (MIC) measurement; assay type: cell-based; settings: Salmonella enterica, 24 h, read-out: minimum inhibitory concentration (MIC)
[18] = system: Salmonella paratyphi A JOL381; experiment: Minimum inhibitory concentration (MIC) measurement; assay type: cell-based; settings: Salmonella enterica, 24 h, read-out: minimum inhibitory concentration (MIC)
[19] = system: E. coli K99 standard strain (E-125) [수과연표준균주 (E-125)]; experiment: Minimum inhibitory concentration (MIC) measurement; assay type: cell-based; settings: Escherichia coli, 24 h, read-out: minimum inhibitory concentration (MIC)

Row | Compound | MIC [1] [µg/mL] | MIC [2] [µg/mL] | MIC [3] [µg/mL] | MIC [4] [µg/mL] | MIC [5] [µg/mL] | MIC [6] [µg/mL] | MIC [7] [µg/mL] | MIC [8] [µg/mL] | MIC [9] [µg/mL] | MIC [10] [µg/mL] | MIC [11] [µg/mL] | MIC [12] [µg/mL] | MIC [13] [µg/mL] | MIC [14] [µg/mL] | MIC [15] [µg/mL] | MIC [16] [µg/mL] | MIC [17] [µg/mL] | MIC [18] [µg/mL] | MIC [19] [µg/mL]
1 | COc1cc(C(=O)OCC2OC(OC34CC5C6(O)CC3(C)OC(O6)C54COC(=O)c3ccc(O)cc3)C(O)C(O)C2O)ccc1O (centres unmarked) [6′-오-바닐릴옥시파에오니플로린, 6'-O-vanillyloxypaeoniflorin] | 300 (≈ 464 µM) | 100 (≈ 155 µM) | 300 (≈ 464 µM) | 200 (≈ 309 µM) | 200 (≈ 309 µM) | 200 (≈ 309 µM) | 200 (≈ 309 µM) | 200 (≈ 309 µM) | 100 to 500 (≈ 155 to 773 µM) | 200 (≈ 309 µM) | 200 (≈ 309 µM) | 200 (≈ 309 µM) | 500 (≈ 773 µM) | 200 (≈ 309 µM) | 200 (≈ 309 µM) | 100 (≈ 155 µM) | 200 (≈ 309 µM) | 200 (≈ 309 µM) | –
2 | NCC1OC(OC2C(N)CC(N)C(OC3OC(CO)C(O)C(N)C3O)C2O)C(O)C(O)C1O (centres unmarked) [Kanamycin A] | 10 (≈ 20.6 µM) | 50 (≈ 103 µM) | 50 (≈ 103 µM) | 50 (≈ 103 µM) | > 100 | > 100 | 10 (≈ 20.6 µM) | 10 (≈ 20.6 µM) | – | 50 (≈ 103 µM) | > 100 | > 100 | > 100 | 50 (≈ 103 µM) | 50 (≈ 103 µM) | > 100 | 50 (≈ 103 µM) | > 100 | –
3 | CC1(C)S[C@@H]2[C@H](NC(=O)Cc3ccccc3)C(=O)N2[C@H]1C(=O)O [Penicillin G] | 50 (≈ 150 µM) | 1 (≈ 2.99 µM) | > 100 | 100 (≈ 299 µM) | > 100 | > 100 | > 100 | 50 (≈ 150 µM) | – | 50 (≈ 150 µM) | 100 (≈ 299 µM) | > 100 | > 100 | 10 (≈ 29.9 µM) | 10 (≈ 29.9 µM) | > 100 | > 100 | > 100 | 50 (≈ 150 µM)
